Each structure is given as a SMILES string.

The source of these data is US20250320193A1, “OXOISOINDOLINYL SUBSTITUTED PIPERIDINEDIONE DERIVATIVE AND USE THEREOF” (GLUETACS THERAPEUTICS (SHANGHAI) CO., LTD., priority 2022, published 2025).

The target of test [1] is human Cereblon WT GST-tagged protein (Homo sapiens (Human), UniProt Q96SW2). Briefly: CRBN-binding affinity, HTRF (CEREBLON BINDING kit, CISBIO). Particulars: HTRF inhibitory activity. The essentials: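 HTRF competition format: test compound displaces Thalidomide-Red from GST-tagged human Cereblon WT, detected with a Eu-labelled anti-GST antibody. Percent CRBN binding inhibition was derived from the 620 nm signal, normalized to solvent-control and protein-free blank wells.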
Background: Time-resolved FRET reads energy transfer from a long-lived donor to a nearby acceptor.

Test [2] has as its target GSPT1 (Homo sapiens (Human), UniProt P15170+Q96SW2). Briefly: Western blot, substrate protein expression in hPBMC: GSPT1. It is filed as cell-based. The conditions noted are these: hPBMC, compound 500 nM, 24 hours, Western blot. A digest of the protocol: (§1)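 hPBMC, 1×10^6 cells/mL, 24 h compound exposure; RIPA lysis, BCA protein assay, SDS-PAGE, NC membrane immunoblot. Densitometry vs internal control → % protein remaining; degradation % = 100% − remaining; DC50 = conc. at 50% of DMSO band signal.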
In general terms: In western blotting, separated proteins are transferred to a membrane and probed.

For test [3], the target named is IKZF1 (Homo sapiens (Human), UniProt Q13422+Q96SW2). Briefly: Western blot, substrate protein expression in hPBMC: IKZF1. Type of test: cell-based. The conditions noted are these: hPBMC, compound 500 nM, 24 hours, Western blot. The essentials:
as §1

Test [4] deals with IKZF3 (Homo sapiens (Human), UniProt Q96SW2+Q9UKT9). Briefly: Western blot, substrate protein expression in hPBMC: IKZF3. It is filed as cell-based. Particulars: hPBMC, compound 500 nM, 24 hours, Western blot. A digest of the protocol: as §1
IKZF3, sequence (Q9UKT9 whole entry): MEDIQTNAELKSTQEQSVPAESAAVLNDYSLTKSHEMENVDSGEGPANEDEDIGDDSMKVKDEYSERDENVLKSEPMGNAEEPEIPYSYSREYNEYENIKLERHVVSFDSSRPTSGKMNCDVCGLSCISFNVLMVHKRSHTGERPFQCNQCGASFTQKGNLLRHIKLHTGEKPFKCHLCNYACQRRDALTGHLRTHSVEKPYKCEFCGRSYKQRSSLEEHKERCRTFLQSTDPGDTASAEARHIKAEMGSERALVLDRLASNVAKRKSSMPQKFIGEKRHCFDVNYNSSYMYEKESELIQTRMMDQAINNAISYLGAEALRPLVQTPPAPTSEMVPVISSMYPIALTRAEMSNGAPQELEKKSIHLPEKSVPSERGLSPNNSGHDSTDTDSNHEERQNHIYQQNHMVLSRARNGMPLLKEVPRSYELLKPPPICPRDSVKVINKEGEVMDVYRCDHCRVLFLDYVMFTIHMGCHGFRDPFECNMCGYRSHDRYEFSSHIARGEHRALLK
IKZF3, sequence (Q96SW2 whole entry): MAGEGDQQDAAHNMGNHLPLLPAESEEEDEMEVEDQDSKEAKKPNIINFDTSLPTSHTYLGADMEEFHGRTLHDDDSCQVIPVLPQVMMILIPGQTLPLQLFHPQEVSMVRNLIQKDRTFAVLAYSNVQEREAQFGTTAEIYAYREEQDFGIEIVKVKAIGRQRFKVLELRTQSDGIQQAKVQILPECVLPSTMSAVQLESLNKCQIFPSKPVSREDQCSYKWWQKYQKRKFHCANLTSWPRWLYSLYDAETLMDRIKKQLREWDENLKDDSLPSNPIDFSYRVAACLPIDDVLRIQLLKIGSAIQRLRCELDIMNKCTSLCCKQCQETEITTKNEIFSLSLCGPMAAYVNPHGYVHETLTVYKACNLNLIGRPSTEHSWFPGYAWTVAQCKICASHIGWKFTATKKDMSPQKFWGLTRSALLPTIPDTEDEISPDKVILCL
IKZF3, sequence (Q16531 whole entry partner): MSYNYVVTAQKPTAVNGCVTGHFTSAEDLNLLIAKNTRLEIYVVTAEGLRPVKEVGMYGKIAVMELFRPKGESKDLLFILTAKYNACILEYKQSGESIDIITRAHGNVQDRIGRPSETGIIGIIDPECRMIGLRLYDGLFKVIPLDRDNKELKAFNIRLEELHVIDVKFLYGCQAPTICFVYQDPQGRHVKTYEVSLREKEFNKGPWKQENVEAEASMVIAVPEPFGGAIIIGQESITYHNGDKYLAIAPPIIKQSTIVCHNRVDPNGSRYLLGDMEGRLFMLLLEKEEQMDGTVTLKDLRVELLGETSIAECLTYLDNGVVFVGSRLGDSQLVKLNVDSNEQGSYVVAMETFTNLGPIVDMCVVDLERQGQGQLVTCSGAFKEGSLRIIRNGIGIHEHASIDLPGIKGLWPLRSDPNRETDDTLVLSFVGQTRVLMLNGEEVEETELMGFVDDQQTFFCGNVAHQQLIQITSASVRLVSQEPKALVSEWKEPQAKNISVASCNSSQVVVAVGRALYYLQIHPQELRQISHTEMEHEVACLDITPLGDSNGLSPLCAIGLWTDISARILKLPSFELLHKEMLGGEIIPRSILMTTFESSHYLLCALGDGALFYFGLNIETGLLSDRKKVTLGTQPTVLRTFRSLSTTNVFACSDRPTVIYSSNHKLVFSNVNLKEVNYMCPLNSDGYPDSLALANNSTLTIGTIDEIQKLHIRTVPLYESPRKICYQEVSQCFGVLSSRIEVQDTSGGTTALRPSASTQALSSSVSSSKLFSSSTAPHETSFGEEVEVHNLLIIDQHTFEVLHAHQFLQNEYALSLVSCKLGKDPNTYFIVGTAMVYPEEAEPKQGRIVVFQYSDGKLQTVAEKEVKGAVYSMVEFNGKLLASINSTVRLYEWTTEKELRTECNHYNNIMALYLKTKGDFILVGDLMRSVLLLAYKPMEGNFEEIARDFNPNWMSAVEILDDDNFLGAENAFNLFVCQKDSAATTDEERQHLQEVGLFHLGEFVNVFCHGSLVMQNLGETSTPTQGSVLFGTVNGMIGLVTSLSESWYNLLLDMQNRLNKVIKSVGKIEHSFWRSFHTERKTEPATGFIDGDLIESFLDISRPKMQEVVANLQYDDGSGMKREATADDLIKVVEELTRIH

IKZF1, sequence (Q13422 whole entry): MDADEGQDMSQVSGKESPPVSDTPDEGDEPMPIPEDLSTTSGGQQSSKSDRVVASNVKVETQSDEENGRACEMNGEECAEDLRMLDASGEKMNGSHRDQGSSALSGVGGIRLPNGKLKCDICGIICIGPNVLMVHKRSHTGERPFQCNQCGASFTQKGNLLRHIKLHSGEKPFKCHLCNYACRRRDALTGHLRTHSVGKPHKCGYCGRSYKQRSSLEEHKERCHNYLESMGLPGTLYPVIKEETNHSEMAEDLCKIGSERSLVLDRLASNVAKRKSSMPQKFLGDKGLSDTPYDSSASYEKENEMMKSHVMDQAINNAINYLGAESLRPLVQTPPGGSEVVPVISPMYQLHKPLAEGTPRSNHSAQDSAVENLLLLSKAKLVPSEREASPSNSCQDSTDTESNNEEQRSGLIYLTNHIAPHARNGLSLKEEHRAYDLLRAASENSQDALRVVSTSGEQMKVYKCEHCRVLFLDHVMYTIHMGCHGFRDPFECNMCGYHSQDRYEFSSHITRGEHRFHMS
IKZF1, sequence (Q96SW2 whole entry): as the sequence (Q96SW2 whole entry) above
IKZF1, sequence (Q16531 whole entry partner): as the sequence (Q16531 whole entry partner) above
GSPT1, sequence (P15170 whole entry): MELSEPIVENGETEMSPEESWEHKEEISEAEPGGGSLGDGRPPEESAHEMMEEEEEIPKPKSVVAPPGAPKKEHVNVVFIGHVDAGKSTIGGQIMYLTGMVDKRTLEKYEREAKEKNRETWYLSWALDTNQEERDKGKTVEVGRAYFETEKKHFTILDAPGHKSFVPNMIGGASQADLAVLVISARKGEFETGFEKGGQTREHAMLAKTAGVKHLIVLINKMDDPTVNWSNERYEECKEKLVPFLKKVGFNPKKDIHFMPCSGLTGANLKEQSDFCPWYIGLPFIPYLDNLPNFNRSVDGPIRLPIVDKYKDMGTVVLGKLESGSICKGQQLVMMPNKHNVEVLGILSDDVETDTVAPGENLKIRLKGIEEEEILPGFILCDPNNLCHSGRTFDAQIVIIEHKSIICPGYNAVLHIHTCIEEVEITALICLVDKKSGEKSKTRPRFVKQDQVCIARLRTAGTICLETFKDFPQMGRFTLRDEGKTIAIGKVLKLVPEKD
GSPT1, sequence (Q96SW2 whole entry): as the sequence (Q96SW2 whole entry) above
GSPT1, sequence (Q16531 whole entry partner): as the sequence (Q16531 whole entry partner) above
human Cereblon WT GST-tagged protein, sequence (Q96SW2 whole entry): as the sequence (Q96SW2 whole entry) above

For the molecule `O=C1CCC(N2Cc3c(CN4CCN(C(c5ccc(F)cc5)c5ccc(F)cc5)CC4)cccc3C2=O)C(=O)N1` (stereo not drawn) [GT-03647, 3-(4-((4-(bis(4-fluorophenyl)methyl)piperazin-1-yl)methyl)-1-oxoisoindolin-2-yl)piperidine-2,6-dione], the IC50 – broadly, the concentration needed to halve the response being measured – in test [1] lay within 500 to 1000 nM. Moreover, in test [2], the “substrate protein remaining % GSPT1” value was “A (A represents 0% ≤ substrate protein remaining % ≤ 50%)”. The “substrate protein remaining % IKZF1” value in test [3] is recorded as “B (B represents substrate protein remaining % > 50%)”. Also, in test [4], the “substrate protein remaining % IKZF3” value is on record as “B (B represents substrate protein remaining % > 50%)”.

Consider `O=C1CCC(N2Cc3cc(CN4C[C@@H]5C[C@H]4CN5C(c4ccccc4)c4ccccc4)ccc3C2=O)C(=O)N1` (stereo partly drawn) [GT-03721, 3-(5-(((1S,4S)-5-benzhydryl-2,5-diazabicyclo[2.2.1]heptan-2-yl)methyl)-1-oxoisoindolin-2-yl)piperidine-2,6-dione], for which, in test [1], the IC50 was < 500 nM. The “substrate protein remaining % GSPT1” value in test [2] is reported as “A (A represents 0% ≤ substrate protein remaining % ≤ 50%)”. In addition, in test [3], the “substrate protein remaining % IKZF1” value is “B (B represents substrate protein remaining % > 50%)”. Further, in test [4], the “substrate protein remaining % IKZF3” value is on record as “A (A represents 0% ≤ substrate protein remaining % ≤ 50%)”.

As for `O=C1CCC(N2Cc3cc(CN4CC5CCC(C4)N5C(c4ccccc4)c4ccccc4)ccc3C2=O)C(=O)N1` (stereo not drawn) [GT-03722, 3-(5-((8-benzhydryl-3,8-diazabicyclo[3.2.1]octan-3-yl)methyl)-1-oxoisoindolin-2-yl)piperidine-2,6-dione], the IC50 in test [1] is < 500 nM. Also, in test [2], the “substrate protein remaining % GSPT1” value is given as “A (A represents 0% ≤ substrate protein remaining % ≤ 50%)”. In test [3], the “substrate protein remaining % IKZF1” value is listed as “A (A represents 0% ≤ substrate protein remaining % ≤ 50%)”. For the same molecule, in test [4], the “substrate protein remaining % IKZF3” value was “A (A represents 0% ≤ substrate protein remaining % ≤ 50%)”.

The molecule `CC1CN(C(c2ccccc2)c2ccccc2)CC(C)N1Cc1ccc2c(c1)CN(C1CCC(=O)NC1=O)C2=O` (stereo not drawn) [GT-03723, 3-(5-((4-benzhydryl-2,6-dimethylpiperazin-1-yl)methyl)-1-oxoisoindolin-2-yl)piperidine-2,6-dione] registered an IC50 in test [1] of 500 to 1000 nM. The “substrate protein remaining % GSPT1” value in test [2] is reported as “A (A represents 0% ≤ substrate protein remaining % ≤ 50%)”. Moreover, the “substrate protein remaining % IKZF1” value in test [3] was “B (B represents substrate protein remaining % > 50%)”. For the same molecule, in test [4], the “substrate protein remaining % IKZF3” value is “B (B represents substrate protein remaining % > 50%)”.

On to `O=C1CCC(N2Cc3c(ccc(CN4CC5CCC(C4)N5C(c4ccccc4)c4ccccc4)c3F)C2=O)C(=O)N1` (stereo not drawn) [GT-03725, 3-(5-((8-benzhydryl-3,8-diazabicyclo[3.2.1]octan-3-yl)methyl)-4-fluoro-1-oxoisoindolin-2-yl)piperidine-2,6-dione], for which the IC50 in test [1] fell in the range of 500 to 1000 nM. Further, in test [2], the “substrate protein remaining % GSPT1” value is reported as “A (A represents 0% ≤ substrate protein remaining % ≤ 50%)”. Moreover, the “substrate protein remaining % IKZF1” value in test [3] is reported as “A (A represents 0% ≤ substrate protein remaining % ≤ 50%)”. Further, the “substrate protein remaining % IKZF3” value in test [4] is on record as “A (A represents 0% ≤ substrate protein remaining % ≤ 50%)”.

As for `CC1CN(C(c2ccccc2)c2ccccc2)CC(C)N1Cc1ccc2c(c1F)CN(C1CCC(=O)NC1=O)C2=O` (stereo not drawn) [GT-03726, 3-(5-((4-benzhydryl-2,6-dimethylpiperazin-1-yl)methyl)-4-fluoro-1-oxoisoindolin-2-yl)piperidine-2,6-dione], in test [1], the IC50 is < 500 nM. For the same molecule, the “substrate protein remaining % GSPT1” value in test [2] was “A (A represents 0% ≤ substrate protein remaining % ≤ 50%)”. Also, the “substrate protein remaining % IKZF1” value in test [3] is given as “B (B represents substrate protein remaining % > 50%)”. In addition, the “substrate protein remaining % IKZF3” value in test [4] was “B (B represents substrate protein remaining % > 50%)”.

Take `O=C1CCC(N2Cc3c(CN4CCN(C(c5ccccc5)c5ccccn5)CC4)cccc3C2=O)C(=O)N1` (stereo not drawn) [GT-03836, 3-(1-oxo-4-((4-(phenyl(pyridin-2-yl)methyl)piperazin-1-yl)methyl)isoindolin-2-yl)piperidine-2,6-dione]: the IC50 in test [1] is 500 to 1000 nM. In addition, the “substrate protein remaining % GSPT1” value in test [2] is “A (A represents 0% ≤ substrate protein remaining % ≤ 50%)”. The “substrate protein remaining % IKZF1” value in test [3] is on record as “B (B represents substrate protein remaining % > 50%)”. In addition, the “substrate protein remaining % IKZF3” value in test [4] was “B (B represents substrate protein remaining % > 50%)”.

With `O=C1CCC(N2Cc3c(ccc(CN4C5CCC4CN(C(c4ccccc4)c4ccccc4)C5)c3F)C2=O)C(=O)N1` (stereo not drawn) [GT-03838, 3-(5-((3-benzhydryl-3,8-diazabicyclo[3.2.1]octan-8-yl)methyl)-4-fluoro-1-oxoisoindolin-2-yl)piperidine-2,6-dione], the IC50 in test [1] is 500 to 1000 nM. The “substrate protein remaining % GSPT1” value in test [2] is on record as “A (A represents 0% ≤ substrate protein remaining % ≤ 50%)”. For the same molecule, in test [3], the “substrate protein remaining % IKZF1” value is reported as “A (A represents 0% ≤ substrate protein remaining % ≤ 50%)”. Further, in test [4], the “substrate protein remaining % IKZF3” value is given as “A (A represents 0% ≤ substrate protein remaining % ≤ 50%)”.

In turn, `CC1CN(Cc2ccc3c(c2)CN(C2CCC(=O)NC2=O)C3=O)CC(C)N1C(c1ccccc1)c1ccccc1` (stereo not drawn) [GT-03872, 3-(5-((4-benzhydryl-3,5-dimethylpiperazin-1-yl)methyl)-1-oxoisoindolin-2-yl)piperidine-2,6-dione] returned an IC50 in test [1] of 1000 to 1900 nM. For the same molecule, in test [2], the “substrate protein remaining % GSPT1” value is “A (A represents 0% ≤ substrate protein remaining % ≤ 50%)”. In test [3], the “substrate protein remaining % IKZF1” value is “B (B represents substrate protein remaining % > 50%)”. The “substrate protein remaining % IKZF3” value in test [4] is reported as “A (A represents 0% ≤ substrate protein remaining % ≤ 50%)”.

In the case of `CC1CN(C(c2ccccc2)c2ccccc2)CC(C)N1Cc1cc2c(cc1F)C(=O)N(C1CCC(=O)NC1=O)C2` (stereo not drawn) [GT-03873, 3-(5-((4-benzhydryl-2,6-dimethylpiperazin-1-yl)methyl)-6-fluoro-1-oxoisoindolin-2-yl)piperidine-2,6-dione], the IC50 in test [1] was < 500 nM. Further, in test [2], the “substrate protein remaining % GSPT1” value was “A (A represents 0% ≤ substrate protein remaining % ≤ 50%)”. The “substrate protein remaining % IKZF1” value in test [3] is “A (A represents 0% ≤ substrate protein remaining % ≤ 50%)”. In addition, the “substrate protein remaining % IKZF3” value in test [4] is “B (B represents substrate protein remaining % > 50%)”.

In the case of `O=C1CCC(N2Cc3cc(CN4CC5CCC4CN5C(c4ccccc4)c4ccccc4)ccc3C2=O)C(=O)N1` (stereo not drawn) [GT-03993, 3-(5-((5-benzhydryl-2,5-diazabicyclo[2.2.2]octan-2-yl)methyl)-1-oxoisoindolin-2-yl)piperidine-2,6-dione], the IC50 in test [1] is < 500 nM. Further, the “substrate protein remaining % GSPT1” value in test [2] is “A (A represents 0% ≤ substrate protein remaining % ≤ 50%)”. Moreover, the “substrate protein remaining % IKZF1” value in test [3] is “B (B represents substrate protein remaining % > 50%)”. The “substrate protein remaining % IKZF3” value in test [4] was “A (A represents 0% ≤ substrate protein remaining % ≤ 50%)”.

For `O=C1CCC(N2Cc3cc(CN4CCCN(C(c5ccccc5)c5ccccc5)CC4)ccc3C2=O)C(=O)N1` (stereo not drawn) [GT-03994, 3-(5-((4-benzhydryl-1,4-diazepan-1-yl)methyl)-1-oxoisoindolin-2-yl)piperidine-2,6-dione], in test [1], the IC50 is < 500 nM. Also, in test [2], the “substrate protein remaining % GSPT1” value was “A (A represents 0% ≤ substrate protein remaining % ≤ 50%)”. In test [3], the “substrate protein remaining % IKZF1” value is recorded as “B (B represents substrate protein remaining % > 50%)”. Further, the “substrate protein remaining % IKZF3” value in test [4] is “B (B represents substrate protein remaining % > 50%)”.

With `O=C1CCC(N2Cc3c(ccc(CN4CC5CCC4CN5C(c4ccccc4)c4ccccc4)c3F)C2=O)C(=O)N1` (stereo not drawn) [GT-04163, 3-(5-((5-benzhydryl-2,5-diazabicyclo[2.2.2]octan-2-yl)methyl)-4-fluoro-1-oxoisoindolin-2-yl)piperidine-2,6-dione], the IC50 in test [1] is 500 to 1000 nM. Moreover, in test [2], the “substrate protein remaining % GSPT1” value is given as “A (A represents 0% ≤ substrate protein remaining % ≤ 50%)”. Also, in test [3], the “substrate protein remaining % IKZF1” value was “B (B represents substrate protein remaining % > 50%)”. For the same molecule, in test [4], the “substrate protein remaining % IKZF3” value was “A (A represents 0% ≤ substrate protein remaining % ≤ 50%)”.

In test [1], `O=C1CCC(N2Cc3c(ccc(CN4CCCN(C(c5ccccc5)c5ccccc5)CC4)c3F)C2=O)C(=O)N1` (stereo not drawn) [GT-04164, 3-(5-((4-benzhydryl-1,4-diazepan-1-yl)methyl)-4-fluoro-1-oxoisoindolin-2-yl)piperidine-2,6-dione] came in with an IC50 of 500 to 1000 nM. Further, the “substrate protein remaining % GSPT1” value in test [2] is “A (A represents 0% ≤ substrate protein remaining % ≤ 50%)”. Besides, the “substrate protein remaining % IKZF1” value in test [3] is listed as “B (B represents substrate protein remaining % > 50%)”. In addition, the “substrate protein remaining % IKZF3” value in test [4] is reported as “B (B represents substrate protein remaining % > 50%)”.

For `O=C1CCC(N2Cc3cc(CN4CCN(C(c5ccccn5)c5ccccn5)CC4)ccc3C2=O)C(=O)N1` (stereo not drawn) [GT-04383, 3-(5-((4-(di(pyridin-2-yl)methyl)piperazin-1-yl)methyl)-1-oxoisoindolin-2-yl)piperidine-2,6-dione], the IC50 in test [1] is < 500 nM. In test [2], the “substrate protein remaining % GSPT1” value is “A (A represents 0% ≤ substrate protein remaining % ≤ 50%)”. In test [3], the “substrate protein remaining % IKZF1” value is “B (B represents substrate protein remaining % > 50%)”. Also, the “substrate protein remaining % IKZF3” value in test [4] was “B (B represents substrate protein remaining % > 50%)”.
